The target of one assay is T1, human orexin-2 receptor (Homo sapiens, UniProt O43614).
T1 construct: expressed in transfected cells; host or cells: CHO cells (grown under G418 selection)
T1 sequence (O43614 1-444): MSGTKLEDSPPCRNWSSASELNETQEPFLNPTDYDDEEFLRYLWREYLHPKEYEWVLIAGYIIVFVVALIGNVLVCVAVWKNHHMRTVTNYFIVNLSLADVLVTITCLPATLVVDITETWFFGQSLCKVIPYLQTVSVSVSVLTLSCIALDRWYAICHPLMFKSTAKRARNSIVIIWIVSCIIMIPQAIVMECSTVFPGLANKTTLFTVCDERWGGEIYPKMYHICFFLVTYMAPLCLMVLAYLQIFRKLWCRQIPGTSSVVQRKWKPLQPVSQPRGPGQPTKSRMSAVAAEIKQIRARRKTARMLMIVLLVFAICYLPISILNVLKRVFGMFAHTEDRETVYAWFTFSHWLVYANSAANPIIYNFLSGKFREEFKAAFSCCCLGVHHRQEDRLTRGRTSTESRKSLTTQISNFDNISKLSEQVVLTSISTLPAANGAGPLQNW
In words: FLIPR Ca2+ flux assay, OX2R. It is filed as cell-based. Conditions: for IC50: CHO cells expressing the human orexin-2 receptor, agonist 70 pM Ala-6,12 orexin-A; for Fold Selective: OX1R FLIPR / OX2R FLIPR. As for the experimental part:
(§1) The utility of the compounds in accordance with the present invention as orexin receptor OX1R and/or OX2R antagonists may be readily determined without undue experimentation by methodology well known in the art, including the “FLIPR Ca^2+ Flux Assay” (Okumura et al., Biochem. Biophys. Res. Comm. 280:976-981, 2001). In a typical experiment the OX1 and OX2 receptor antagonistic activity of the compounds of the present invention was determined in accordance with the following experimental method. For intracellular calcium measurements, Chinese hamster ovary (CHO) cells expressing the rat orexin-1 receptor or the human orexin-2 receptor, are grown in Iscove's modified DMEM containing 2 mM L-glutamine, […], 1% hypoxanthine-thymidine supplement, 100 U/ml penicillin, 100 μg/ml streptomycin and 10% heat-inactivated fetal calf serum (FCS). The cells are seeded at 20,000 cells/well into Becton-Dickinson black 384-well clear bottom sterile plates coated with poly-D-lysine. All reagents were from GIBCO-Invitrogen Corp. The seeded plates are incubated overnight at 37° C. and 5% CO2. Ala-6,12 human orexin-A as the agonist is prepared as a 1 mM stock solution in 1% bovine serum albumin (BSA) and diluted in assay buffer (HBSS containing 20 mM HEPES, 0.1% BSA and 2.5 mM probenecid, pH7.4) for use in the assay at a final concentration of 70 pM. Test compounds are prepared as 10 mM stock solution in DMSO, then diluted in 384-well plates, first in DMSO, then assay buffer. On the day of the assay, cells are washed 3 times with 100 μl assay buffer and then incubated for 60 min (37° C., 5% CO2) in 60 μl assay buffer containing 1 μM Fluo-4AM ester, 0.02% pluronic acid, and 1% BSA. The dye loading solution is then aspirated and cells are washed 3 times with 100 μl assay buffer. 30 μl of that same buffer is left in each well. Within the Fluorescent Imaging Plate Reader (FLIPR, Molecular Devices), test compounds are added to the plate in a volume of 25 μl, incubated for 5 min and finally 25 μl of agonist is added. Fluorescence is measured for each well at 1 second intervals for 5 minutes and the height of each fluorescence peak is compared to the height of the fluorescence peak induced by 70 pM Ala-6,12 orexin-A with buffer in place of antagonist. For each antagonist, IC50 value (the concentration of compound needed to inhibit 50% of the agonist response) is determined. Alternatively, compound potency can be assessed by a radioligand binding assay (described in Bergman et. al. Bioorg. Med. Chem. Lett. 2008, 18, 1425-1430) in which the inhibition constant (Ki) is determined in membranes prepared from CHO cells expressing either the OX1 or OX2 receptor. The intrinsic orexin receptor antagonist activity of a compound which may be used in the present invention may be determined by these assays.

For a further assay, the target named is T2, rat orexin-1 receptor (Rattus norvegicus, UniProt P56718).
T2 construct: expressed in transfected cells; host or cells: CHO cells (grown under G418 selection)
T2 sequence (P56718 1-416): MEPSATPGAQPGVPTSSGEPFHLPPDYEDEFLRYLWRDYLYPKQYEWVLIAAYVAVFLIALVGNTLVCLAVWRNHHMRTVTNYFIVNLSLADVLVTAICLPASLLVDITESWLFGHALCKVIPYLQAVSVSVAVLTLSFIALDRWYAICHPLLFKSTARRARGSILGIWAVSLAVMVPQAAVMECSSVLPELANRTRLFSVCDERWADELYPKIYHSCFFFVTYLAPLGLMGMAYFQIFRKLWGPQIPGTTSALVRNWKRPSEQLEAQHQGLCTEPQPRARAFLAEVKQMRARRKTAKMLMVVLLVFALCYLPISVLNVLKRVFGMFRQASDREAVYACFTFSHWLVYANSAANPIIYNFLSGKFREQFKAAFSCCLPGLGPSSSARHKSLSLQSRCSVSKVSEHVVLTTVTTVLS
In words: FLIPR Ca2+ flux assay, OX1R. The note with it: CHO cells expressing the rat orexin-1 receptor; agonist 70 pM Ala-6,12 orexin-A. The class given is cell-based. As for the experimental part: as §1

The text below walks through data of US9994570B2, “Bridged diazepane orexin receptor antagonists” (MERCK SHARP & DOHME CORP., priority 2014, dated 2018).

Take `Cc1cc(C)nc(N2CC3CC2CN(C(=O)c2ccccc2CS(C)(=O)=O)C3)n1` (stereo not drawn) [Example 28, 6-(4,6-dimethylpyrimidin-2-yl)-3-({2-[(methylsulfonyl)methyl]phenyl}carbonyl)-3,6-diazabicyclo[3.2.1]octane]: at human orexin-2 receptor, the IC50 worked out at 47 nM and the “Fold Selective” value was above 213. The same compound showed an IC50 on rat orexin-1 receptor above 10000 nM.

On to `Cc1cc(C)nc(N2CC3CC2CN(C(=O)c2cccnc2CC(F)(F)F)C3)n1` (stereo not drawn) [Example 32, 6-(4,6-dimethylpyrimidin-2-yl)-3-{[2-(2,2,2-trifluoroethyl)pyridin-3-yl]carbonyl}-3,6-diazabicyclo[3.2.1]octane], for which, on human orexin-2 receptor, the half-maximal inhibitory concentration (IC50) amounted to 58 nM and the “Fold Selective” value is recorded as above 172. This compound came in with a 50% inhibitory concentration (IC50) at rat orexin-1 receptor above 10000 nM.

In the case of `Cc1cc(C)nc(N2CC3CC2CN(C(=O)c2ccccc2OCC(F)(F)F)C3)n1` (stereo not drawn) [Example 26, 6-(4,6-dimethylpyrimidin-2-yl)-3-{[2-(2,2,2-trifluoroethoxy)-phenyl]carbonyl}-3,6-diazabicyclo[3.2.1]octane], at human orexin-2 receptor, the IC50 came to 10 nM and the “Fold Selective” value was 114. The same compound gave an IC50 on rat orexin-1 receptor of 1140 nM.

Turning to `Cc1cc(C)nc(N2CC3CC2CN(C(=O)c2nccnc2OCC2CC2)C3)n1` (stereo not drawn) [Example 48, (3-(cyclopropylmethoxy)pyrazin-2-yl)(6-(4,6-dimethylpyrimidin-2-yl)-3,6-diazabicyclo[3.2.1]octan-3-yl)methanone], at human orexin-2 receptor, the IC50 is 37 nM and the “Fold Selective” value is reported as 103. In addition, the half-maximal inhibitory concentration (IC50) at rat orexin-1 receptor was determined as 3830 nM.

As to `Cc1cc(C)nc(N2CC3CC2CN(C(=O)c2ccccc2C2CC2)C3)n1` (stereo not drawn) [Example 11, 3-[(2-cyclopropylphenyl)-carbonyl]-6-(4,6-dimethylpyrimidin-2-yl)-3,6-diazabicyclo[3.2.1]octane], at human orexin-2 receptor, the IC50 amounted to 13 nM and the “Fold Selective” value stood at 47. In addition, the IC50 on rat orexin-1 receptor is 613 nM.

Turning to `Cc1cc(C#N)nc(N2CC3CC2CN(C(=O)c2cccnc2OCC(F)F)C3)n1` (stereo not drawn) [Example 4, 2-(3-{[2-(2,2-difluoroethoxy)pyridin-3-yl]carbonyl}-3,6-diazabicyclo[3.2.1]oct-6-yl)-6-methylpyrimidine-4-carbonitrile], at human orexin-2 receptor, the IC50 was 19 nM and the “Fold Selective” value is given as 174. The compound further showed an IC50 on rat orexin-1 receptor of 3300 nM.

In the case of `Cc1cc(C#N)nc(N2CC3CC2CN(C(=O)c2ccccc2OCC(F)(F)F)C3)n1` (stereo not drawn) [Example 3, 6-methyl-2-(3-(2-(2,2,2-trifluoroethoxy)benzoyl)-3,6-diazabicyclo[3.2.1]octan-6-yl)pyrimidine-4-carbonitrile], on human orexin-2 receptor, the concentration for half-maximal inhibition (IC50) was determined as 18 nM and the “Fold Selective” value is reported as 178. At rat orexin-1 receptor, this compound yielded an IC50 of 3210 nM.

In the case of `Cc1cc(C)nc(N2CC3CC2CN(C(=O)c2ccccc2-n2ncnn2)C3)n1` (stereo not drawn) [Example 19, 6-(4,6-dimethylpyrimidin-2-yl)-3-{[2-(2H-tetrazol-2-yl)phenyl]carbonyl}-3,6-diazabicyclo[3.2.1]octane], the IC50 is 36 nM at human orexin-2 receptor and 1600 nM at rat orexin-1 receptor. The “Fold Selective” value at human orexin-2 receptor is reported as 44.

Consider `Cc1cc(C)nc(N2CC3CC2CN(C(=O)c2cccnc2-c2noc(C)n2)C3)n1` (stereo not drawn) [Example 23, 6-(4,6-dimethylpyrimidin-2-yl)-3-{[2-(5-methyl-1,2,4-oxadiazol-3-yl)pyridin-3-yl]carbonyl}-3,6-diazabicyclo[3.2.1]octane], for which, on human orexin-2 receptor, the IC50 was 103 nM and the “Fold Selective” value was above 97. Besides, the half-inhibitory concentration (IC50) at rat orexin-1 receptor was above 10000 nM.

Turning to `Cc1cc(C)nc(N2CC3CC2CN(C(=O)c2nccnc2-n2cccn2)C3)n1` (stereo not drawn) [Example 20, 6-(4,6-dimethylpyrimidin-2-yl)-3-{[3-(1H-pyrazol-1-yl)pyrazin-2-yl]carbonyl}-3,6-diazabicyclo[3.2.1]octane], the IC50 at human orexin-2 receptor turned out to be 50 nM; on rat orexin-1 receptor it was 3400 nM. Moreover, the “Fold Selective” value on human orexin-2 receptor came out at 68.

For the compound `Cc1cc(C)nc(N2CC3CC2CN(C(=O)c2cccc(F)c2C2CC2)C3)n1` (stereo not drawn) [Example 24, (2-cyclopropyl-3-fluorophenyl)(6-(4,6-dimethylpyrimidin-2-yl)-3,6-diazabicyclo[3.2.1]octan-3-yl)methanone], on human orexin-2 receptor, the IC50 was 17 nM and the “Fold Selective” value came to 44. In addition, the IC50 at rat orexin-1 receptor was 743 nM.

With `Cc1cc(C)nc(N2CC3CC2CN(C(=O)c2cccnc2N(C)CC(F)F)C3)n1` (single isomer, unassigned) [Example 47], on human orexin-2 receptor, the IC50 was 29 nM and the “Fold Selective” value is reported as 261. At rat orexin-1 receptor, this compound returned an IC50 of 7560 nM.

Take `Cc1cc(C)nc(N2CC3CC2CN(C(=O)c2ccccc2CC(F)F)C3)n1` (stereo not drawn) [Example 36, 3-{[2-(2,2-difluoroethyl)phenyl]carbonyl}-6-(4,6-dimethylpyrimidin-2-yl)-3,6-diazabicyclo[3.2.1]octane]: on human orexin-2 receptor, the IC50 worked out at 15 nM and the “Fold Selective” value was found to be 139. At rat orexin-1 receptor, this compound had a concentration for half-maximal inhibition (IC50) of 2090 nM.

For `Cc1cc(C)nc(N2CC3CC2CN(C(=O)c2cccnc2OCC2CC2)C3)n1` (stereo not drawn) [Example 39, 3-{[2-(cyclopropyl-methoxy)pyridin-3-yl]carbonyl}-6-(4,6-dimethylpyrimidin-2-yl)-3,6-diazabicyclo-[3.2.1]octane], the IC50 at human orexin-2 receptor was 13 nM; on rat orexin-1 receptor, 1370 nM. Further, the “Fold Selective” value on human orexin-2 receptor is recorded as 106.

Regarding `Cc1cc(C#N)nc(N2CC3CC2CN(C(=O)c2ccccc2CS(C)(=O)=O)C3)n1` (stereo not drawn) [Example 7, 6-methyl-2-(3-(2-((methylsulfonyl)methyl)benzoyl)-3,6-diazabicyclo[3.2.1]octan-6-yl)pyrimidine-4-carbonitrile], on human orexin-2 receptor, the half-inhibitory concentration (IC50) was 61 nM and the “Fold Selective” value is reported as above 164. Also, the 50% inhibitory concentration (IC50) at rat orexin-1 receptor is above 10000 nM.

Take `Cc1cc(C)nc(N2CC3CC2CN(C(=O)c2cccnc2OC2CCCC2)C3)n1` (stereo not drawn) [Example 38]: the figures for the IC50 on human orexin-2 receptor and at rat orexin-1 receptor were 23 nM and 1080 nM, respectively. For the same compound, the “Fold Selective” value at human orexin-2 receptor was 47.

On to `COc1ccc(C(=O)N2CC3CC(C2)N(c2nc(C)cc(C)n2)C3)c(-n2nccn2)n1` (stereo not drawn) [Example 30, 6-(4,6-dimethylpyrimidin-2-yl)-3-{[6-methoxy-2-(2H-1,2,3-triazol-2-yl)pyridin-3-yl]carbonyl}-3,6-diazabicyclo[3.2.1]octane], for which, at human orexin-2 receptor, the IC50 stood at 117 nM and the “Fold Selective” value is listed as above 85. Besides, the IC50 at rat orexin-1 receptor is above 10000 nM.

Consider `Cc1cc(C)nc(N2CC3CC2CN(C(=O)c2nccnc2OCC(F)F)C3)n1` (stereo not drawn) [Example 49, 3-{[3-[2,2-difluoroethoxy)pyrazin-2-yl]carbonyl}-6-(4,6-dimethylpyrimidin-2-yl)-3,6-diazabicyclo[3.2.1]octane], for which, on human orexin-2 receptor, the IC50 is 33 nM and the “Fold Selective” value came out at 117. The IC50 on rat orexin-1 receptor was 3860 nM.
